Data taken from patent publication US12404345B2, “Humanized antibodies against iRHOM2” (SCIRHOM GMBH, priority 2021, dated 2025).

Test system: PMA-induced release of endogenous TGFα from human PC3 prostate cancer cells
Assay: ELISA-based TGFα release assay, PMA-induced, PC3 cells
Type: cell-based
Details: PC-3, Batimastat 10 μM, PMA 25 ng/ml, 2 hours
Experimental: In the following study, ELISA-based TGFα release assays were performed to analyze the inhibitory effects of the antibodies of the invention on PMA-induced release of endogenous TGFα from human PC3 prostate cancer cells.
In brief, on day 1, Nunc black MaxiSorp® 96-well plates (Thermo Fisher Scientific, USA) were coated overnight with 100 μl per well of goat anti-human TGFα capture antibody (provided as part of the DuoSet ELISA kit) at 0.4 μg/ml TBS at 4° C. 80,000 PC3 (European Collection of Authenticated Cell Cultures, UK) cells in 100 μl of normal growth medium were seeded in each well of F-bottom 96-well cell culture plates (Corning, USA) and incubated at 37° C., 5% CO2 overnight. On day 2, the capture antibody solution was removed and MaxiSorp® plates were blocked with 300 μl per well of TBS, 1% BSA at room temperature for 1-2 hours. […] Using an infinite M1000 (Tecan Group, Switzerland) microplate reader, the fluorescence of each well was collected at an excitation wavelength of 435 nm and an emission wavelength of 555 nm.

CNC(=O)[C@H](Cc1ccccc1)NC(=O)[C@H](CC(C)C)[C@H](CSc1cccs1)C(=O)NO [Batimastat]
inhibition at 10 µM: 90.7%
